Results taken from patent US11213542B2, “Method and agent for lowering total cholesterol levels and for improving blood lipid spectrum composition” (BIOGIX, INC., priority 2018, dated 2022).
Read-outs that look alike come from different tables or passages of the source. Marks after values point to notes of the source that are not given here.

System: patients with abnormal levels of lipid spectrum
[1] = Visit 1 (baseline), 4000 mg vitamin PP daily for 5 days
[2] = Visit 2 (5 days of supplementation), 4000 mg vitamin PP daily
[3] = Visit 3 (10 days after last dose), 15 days, 4000 mg vitamin PP daily for 5 days
[4] = Visit 4 (30 days after last dose), 35 days, 4000 mg vitamin PP daily for 5 days

Question: With `O=C(O)c1cccnc1` [PP, vitamin PP] as the molecule, how does the “patients dropped out due to side effects” value (3rd day of the trial) read?
Answer: 1 patients

Question: What about the “effect on lipid spectrum (in words)” value (4000 mg vitamin PP daily, 5 days) of the same molecule?
Answer: quickly lowers TC and LDL, without significantly changing the rest of the lipid spectrum parameters

Question: What about the “patients dropped out due to side effects” value (4th day of the trial) of the same molecule?
Answer: 3 patients

Question: What about the “patients dropped out due to adverse effects” value (PP group, 4000 mg vitamin PP daily, 5 days) of the same molecule?
Answer: 12%

Question: And the “HDL (high density lipoproteins)” value [1]?
Answer: 0.98 mmol/L

Question: What about the “LDL (low density lipoproteins)” value [1] of the same molecule?
Answer: 3.13 mmol/L

Question: And the “La (lipoprotein a)” value [1]?
Answer: 36.75 mg/dL

Question: And the “TC (total cholesterol)” value [1]?
Answer: 6.77 mmol/L

Question: And the “TG (triglycerides)” value [1]?
Answer: 2.35* mmol/L

Question: And the “VLDL (very low density lipoproteins)” value [1]?
Answer: 1.14 mmol/L

Question: What about the “HDL (high density lipoproteins)” value [2] of the same molecule?
Answer: 0.99 mmol/L

Question: And the “LDL (low density lipoproteins)” value [2]?
Answer: 2.58 mmol/L

Question: And the “La (lipoprotein a)” value [2]?
Answer: 38.39 mg/dL

Question: And the “TC (total cholesterol)” value [2]?
Answer: 5.99 mmol/L

Question: What about the “TG (triglycerides)” value [2] of the same molecule?
Answer: 2.40 mmol/L

Question: And the “VLDL (very low density lipoproteins)” value [2]?
Answer: 1.11 mmol/L

Question: What about the “HDL (high density lipoproteins)” value [3] of the same molecule?
Answer: 0.95 mmol/L

Question: And the “LDL (low density lipoproteins)” value [3]?
Answer: 2.97 mmol/L

Question: What about the “La (lipoprotein a)” value [3] of the same molecule?
Answer: 37.40 mg/dL

Question: And the “TC (total cholesterol)” value [3]?
Answer: 6.12 mmol/L

Question: What about the “TG (triglycerides)” value [3] of the same molecule?
Answer: 2.33 mmol/L

Question: And the “VLDL (very low density lipoproteins)” value [3]?
Answer: 1.15 mmol/L

Question: What about the “HDL (high density lipoproteins)” value [4] of the same molecule?
Answer: 0.99 mmol/L

Question: What about the “LDL (low density lipoproteins)” value [4] of the same molecule?
Answer: 3.18 mmol/L

Question: What about the “La (lipoprotein a)” value [4] of the same molecule?
Answer: 37.29 mg/dL

Question: And the “TC (total cholesterol)” value [4]?
Answer: 6.81 mmol/L

Question: What about the “TG (triglycerides)” value [4] of the same molecule?
Answer: 2.37 mmol/L

Question: And the “VLDL (very low density lipoproteins)” value [4]?
Answer: 1.16 mmol/L

Question: What about the duration of efficacy (after 5-day course of 4000 mg vitamin PP daily) of the same molecule?
Answer: ≤ 10 days

Question: What about the “patients dropped out due to side effects” value (second day of the trial) of the same molecule?
Answer: 2 patients
